# Reference: publication PMC10959927, “Platinum iodido drugs show potential anti-tumor activity, affecting cancer cell metabolism and inducing ROS and senescence in gastrointestinal cancer cells” (Communications Biology, 2024)
# Values joined by “and” are separate entries in the source; they are usually repeats but may differ in a detail not shown here. Identical values can stand only once.
# Tests used:
# Format in all cases: cell-based, human
# AGS cells [1] = test: Clonogenic (CFU) assay with or without NAC; conditions: IC50 concentration, 10 days
# Description: (§1) For the clonogenic assay we used two different approaches. […] Then, cells were cultured in a 6-well plate at a very low concentration (2 × 10^3 cells per well) and incubated for 10 days. […] To evaluate the role of ROS in cell proliferation, we supplemented the growth medium with 0.5 mM NAC. After 10 days, the cells were fixed with 1% glutaraldehyde and stained with 0.1% crystal violet. The number of colonies was quantified directly and reflected as CFUs: Colony Forming Units.
# MKN45 cells [2] = test: Clonogenic (CFU) assay with or without NAC; conditions: 10 days
# Description: as §1
# MKN45 cells [3] = test: Immunofluorescence of γ-H2AX foci; conditions: Fig. 3B; for foci/cell, number of cells in class: cell count
# Description: Cells (7 × 10^4) were seeded on 20 mm coverslips. […] Coverslips were incubated for 1 h with the primary antibody (Cell Signaling: H2AX Ser139 (#2595) and 53BP1 (#4937)) at room temperature, followed by a 1 h incubation with the appropriate secondary antibody. DNA was stained with DAPI. Fluorescence microscopy was performed using a NIKON Eclipse 90i. The image analysis was performed using the software program Nikon NIS-Elements and Image J.
# AGS cells [4] = test: Flow cytometry mitochondrial mass and membrane potential (MitoTracker Green / CMXRos)
# Description: (§2) We used flow cytometry to study the mitochondrial mass, mitochondrial membrane potential (ΔΨm) and cellular senescence of untreated and treated cells. Cells (5 × 10^4) were seeded in 24-multiwell dishes and cultured overnight. […] Cells were tripsinized, stained with Mitoprobes and resuspended in Flow buffer [1X PBS; 3% Fetal Bovine Serum (v/v); 3 mM EDTA (v/v)] before analysis with a 4-laser Attune NxT Acoustic Cytometer (Thermo Fisher Scientific). For Mitoprobe assays, […] DAPI (Sigma) was used to exclude dead cells. Data were analyzed with FlowJo 9.3 software (Tree Star Inc., Ashland, OR). For mitochondrial mass and ΔΨm measurement, Mitotracker Green (MTGreen, M7514, Invitrogen) and Mitotracker Red CMXRos (CMXROS, M7512, Invitrogen) were used, respectively. Probes were incubated with cells for 30 min at 37 °C at a concentration of 100 nM (MTGreen) and 20 nM (CMXROS), and fluorescence was detected using the filters (Ex488nm/Em530/30) BL1 and (Ex561nm/Em585/16) YL1, respectively. To determine mitochondria functionality, the ratio between ΔΨm (MitoTracker Red CMXRos) versus Mit. Mass (MitoTracker Green) was calculated. The gating strategy used in all the Flow Cytometry experiments is reflected in Fig.S10.
# MKN45 cells [5] = test: as above
# Description: as §2
# PANC1 cells = test: as above
# Description: as §2
# [6] = system: telomeres, 36B4, MT-COX1, MT-CYB DNA of MKN45 cells; test: Oxidized bases (FPG-sensitive lesions) in genome regions by qPCR; conditions: MKN45, IC50 concentration 24 h, normalized to control, single replicates
# Text: (§3) Total cellular DNA from MKN45 and PANC1 cells was extracted using an NZY Tissue gDNA Isolation Kit (Nzytech, MB13503) following the manufacturer’s instructions and quantified using a Nanodrop (Nanodrop Spectrophotometer ND-1000, ThermoFisher Scientific, Wilmington, DE, USA). We adapted the procedure described by O’Callaghan et al.[76] to measure oxidative DNA damage at telomeres, 36B4 genomic region and at mitochondrial DNA (MT-COX1, MT-CYB). This is a qPCR method based on differences in PCR kinetics between DNA template digested by Formamidopyrimidine DNA Glycosylase (FPG, Cat no. M0240S) and undigested DNA. This enzyme recognizes and cuts 8-oxoguanine, producing apurinic sites that are converted into single-strand breaks by its apurinic sites lyase activity. These single-strand breaks inhibit the PCR, thus, the ΔCT after digesting DNA by […] (Ct digested–Ct undigested) is proportional to the oxidative damage in the amplified region. DNA was incubated with 8 Units of FPG during 3 h in FPG buffer (NEB1, M0240S). The reaction was stopped by incubation at 95 °C for 5 min. qPCR analysis was performed on 40 ng of digested or undigested genomic DNA. Each qPCR was performed in triplicate including no-template controls in a StepOne Real‐time PCR System (Applied Biosystems, 4376357). Target genes (Table 3) were amplified using SYBR Green (Applied Biosystems, MB345). Thermal cycling of the qPCR reaction was initiated with a denaturation step at 95 °C for 10 min. The process consisted of 40 cycles (denaturation at 95 °C for 15 sec, annealing at 60 °C for 30 sec, and elongation at 72 °C for 30 sec). This experiment was repeated three independent times with 10–12 replicates.
# [7] = system: telomeres, 36B4, MT-COX1, MT-CYB DNA of PANC1 cells; test: as above; conditions: PANC1, IC50 concentration 24 h, normalized to control, single replicates
# Text: as §3
# [8] = MKN45, fold change vs C, replicates
# [9] = PANC1, fold change vs C, replicates
compound,measurement,setting,value
"[NH2][Pt]([NH2])([Cl])[Cl] [CDDP, cisplatin, reference compound]","colonies (CFUs), mean ± SD",AGS cells [1]; AGS + NAC 0.5 mM,0.7 ± 0.6
same,"colonies (CFUs), mean ± SD","AGS cells [1]; AGS, no NAC",0
same,"colonies (CFUs), mean ± SD","MKN45 cells [2]; MKN45 + NAC 0.5 mM, IC50 concentration",1 ± 1.4
same,"colonies (CFUs), mean ± SD","MKN45 cells [2]; MKN45, IC50 concentration, no NAC",1 ± 1
same,"foci/cell, share of cells in class (Suma 100)",MKN45 cells [3]; class 16-30 foci/cell,6.667
same,"foci/cell, number of cells in class",MKN45 cells [3]; class 16-30 foci/cell,4
same,"foci/cell, share of cells in class (Suma 100)",MKN45 cells [3]; class 31-45 foci/cell,13.3333
same,"foci/cell, number of cells in class",MKN45 cells [3]; class 31-45 foci/cell,8
same,"foci/cell, share of cells in class (Suma 100)",MKN45 cells [3]; class 46-60 foci/cell,16.6667
same,"foci/cell, number of cells in class",MKN45 cells [3]; class 46-60 foci/cell,10
same,"foci/cell, share of cells in class (Suma 100)",MKN45 cells [3]; class <15 foci/cell,0
same,"foci/cell, number of cells in class",MKN45 cells [3]; class <15 foci/cell,0
same,"foci/cell, share of cells in class (Suma 100)",MKN45 cells [3]; class >61 foci/cell,63.3333
same,"foci/cell, number of cells in class",MKN45 cells [3]; class >61 foci/cell,38
same,Fold change ΔΨm/MM,"AGS cells [4]; IC50 doses 24 h, CMX-ROS/MitoGreen ratio vs untreated 1.0",1.12 and 0.8 and 0.61
same,"Fold change %CMXROS, ΔΨm","AGS cells [4]; fold change vs C, replicates",0.87 and 0.86 and 0.72
same,"Fold change %MTGreen, MM","AGS cells [4]; fold change vs C, replicates",0.78 and 0.73 and 0.76
same,Fold change ΔΨm/MM,"MKN45 cells [5]; MKN45, IC50 doses 24 h, CMX-ROS/MitoGreen ratio vs untreated 1.0",0.77 and 0.76
same,"Fold change %CMXROS, ΔΨm",MKN45 cells [5]; [8],0.72 and 0.71
same,"Fold change %MTGreen, MM",MKN45 cells [5]; [8],0.94 and 0.93
same,Fold change ΔΨm/MM,"PANC1 cells; PANC1, IC50 doses 24 h, CMX-ROS/MitoGreen ratio vs untreated 1.0",0.48 and 0.57 and 0.56
same,"Fold change %CMXROS, ΔΨm",PANC1 cells; [9],1.08 and 1.13
same,"Fold change %MTGreen, MM",PANC1 cells; [9],1.99 and 2.23 and 2.11
same,"TEL (Fold change - ΔCt TEL), oxidative DNA damage",[6]; FPG-digested vs undigested,2.134 and 3.241 and 3.532 and 0.2864 and 0.7917 and 1.101 and 0.9693 and 0.9768 and 0.981 and 0.9672
same,"36B4 (Fold change - ΔCt 36B4), oxidative DNA damage",[6],0.8255 and 0.8326 and 1.095 and 1.237 and 1.611 and 1.72 and 2.271 and 2.214 and 1.327 and 2.203
same,"MT-COX1 (Fold change - ΔCt MT-COX1), oxidative DNA damage",[6],1.028 and 1.042 and 1.044 and 1.141 and 0.8202 and 0.6032 and 2.316 and 2.623 and 3.028
same,"MT-CYB (Fold change - ΔCt MT-CYB), oxidative DNA damage",[6],1.38 and 1.409 and 1.605 and 1.1947 and 1.217 and 1.312 and 1.3882 and 2.275 and 1.316 and 2.313
same,"TEL (Fold change - ΔCt TEL), oxidative DNA damage",[7]; FPG-digested vs undigested,4.038 and 4.138 and 5.415 and 0.6214 and 0.3967 and 0.9429 and 1.679 and 1.417 and 1.6318 and 1.586
same,"36B4 (Fold change - ΔCt 36B4), oxidative DNA damage",[7],1.144 and 1.346 and 0.8021 and 1.678 and 2.371 and 2.867 and 3.452 and 2.312 and 2.5645
same,"MT-COX1 (Fold change - ΔCt MT-COX1), oxidative DNA damage",[7],1.1557 and 1.18 and 1.253 and 1.195 and 2.153 and 0.9478 and 1.587 and 1.014 and 1.075 and 1.118
same,"MT-CYB (Fold change - ΔCt MT-CYB), oxidative DNA damage",[7],1.618 and 1.296 and 1.304 and 1.472 and 1.131 and 1.532 and 1.619 and 1.965 and 6.543 and 5.482 and 6.158 and 5.629
